Results: US4073891A, “N^2 -Arylsulfonyl-L-argininamides and the pharmaceutically acceptable salts thereof” (Mitsubishi Chemical Industries Limited, priority 1974, dated 1978)

Tests used:
mice = assay: acute toxicity (LD50), intraperitoneal administration; assay type: in vivo; conditions: mice (male, 20 g)
Excerpt: Representative LD50 values, for example, for N^2 -(5,6,7,8-tetrahydro-1-naphthylsulfonyl)-N-(2-methoxyethyl)glycine, N^2 -(7-methyl-2-naphthylsulfonyl)-N-butylglycine and N^2 -(6,7-dimethyl-1-naphthylsulfonyl)-N-(2-methoxyethyl)glycine are above 1,500 milligrams per kilogram, respectively.

thrombin = biological target: T1, thrombin (Bos taurus, UniProt P00735); assay: fibrinogen coagulation time; assay type: biochemical; conditions: bovine fibrinogen, thrombin 5 units/ml, borate saline buffer pH 7.4, 25° C; normal coagulation time 50-55 seconds
T1 construct: purchased Mochida Pharmaceutical Co., Ltd
Protocol: The measurement of the fibrinogen coagulation time was conducted as follows:
Immediately after mixing, the reaction mixture was transferred from the ice bath to a bath maintained at 25° C. Coagulation times were taken as the period between the time of transference to the 25° C bath and the time of the first appearance of fibrin threads. […] The term "concentration required to prolong the coagulation time by a factor of two" is the concentration of an active ingredient required to prolong the normal coagulation time 50-55 seconds to 100-110 seconds.

Structure (SMILES) | Concentration required to prolong the coagulation time by a factor of two (thrombin) [µM] | acute toxicity LD50 (mice)
CCCCN(CC(=O)O)C(=O)[C@H](CCCNC(=N)N)NS(=O)(=O)c1ccc2ccc(C)cc2c1 [Sample 14, N^2-(7-methyl-2-naphthylsulfonyl)-L-arginyl-N-butylglycine] | 0.3 | above 1,500 milligrams per kilogram
CCCCNC(=O)[C@H](CCCNC(=N)N)NS(=O)(=O)c1cccc2c(N(C)C)cccc12 [N^2 -dansyl-N-butyl-L-argininamide, reference compound] | – | 75 milligrams per kilogram
COCCN(CC(=O)O)C(=O)[C@H](CCCNC(=N)N)NS(=O)(=O)c1cccc2c1CCCC2 [Sample 3, N^2-(5,6,7,8-tetrahydro-1-naphthylsulfonyl)-L-arginyl-N-(2-methoxyethyl)glycine] | 10 | above 1,500 milligrams per kilogram
CCCCN(C)C(=O)[C@H](CCCNC(=N)N)NS(=O)(=O)c1cccc2c(N(C)C)cccc12 [N^2 -dansyl-N-methyl-N-butyl-L-argininamide, reference compound] | – | 70 milligrams per kilogram
COCCN(CC(=O)O)C(=O)[C@H](CCCNC(=N)N)NS(=O)(=O)c1cccc2cc(C)c(C)cc12 [Sample 23, N^2-(6,7-dimethyl-1-naphthylsulfonyl)-L-arginyl-N-(2-methoxyethyl)glycine] | 10 | above 1,500 milligrams per kilogram

The next lines start with results.

Concentration required to prolong the coagulation time by a factor of two (thrombin) [µM] | Structure (SMILES) | acute toxicity LD50 (mice)
30 | N=C(N)NCCC[C@H](NS(=O)(=O)c1ccc2c(c1)CCCC2)C(=O)N(CC(=O)O)Cc1ccccc1 [Sample 4, N^2-(5,6,7,8-tetrahydro-2-naphthylsulfonyl)-L-arginyl-N-benzylglycine] | –
14 | Cc1ccc2ccc(S(=O)(=O)N[C@@H](CCCNC(=N)N)C(=O)N(CC(=O)O)CC3CCCCC3)cc2c1 [Sample 17, N^2-(7-methyl-2-naphthylsulfonyl)-L-arginyl-N-cyclohexylmethylglycine] | –
20 | CCCCN(CC(=O)O)C(=O)[C@H](CCCNC(=N)N)NS(=O)(=O)c1cccc2c1CCCC2 [Sample 1, N^2-(5,6,7,8-tetrahydro-1-naphthylsulfonyl)-L-arginyl-N-butylglycine] | –
0.2 | COCCN(CC(=O)O)C(=O)[C@H](CCCNC(=N)N)NS(=O)(=O)c1ccc2ccc(C)cc2c1 [Sample 15, N^2-(7-methyl-2-naphthylsulfonyl)-L-arginyl-N-(2-methoxyethyl)glycine] | –
20 | COCCN(CC(=O)O)C(=O)[C@H](CCCNC(=N)N)NS(=O)(=O)c1cccc2ccc(C)cc12 [Sample 22, N^2-(7-methyl-1-naphthylsulfonyl)-L-arginyl-N-(2-methoxyethyl)glycine] | –
4 | CCCCN(CC(=O)O)C(=O)[C@H](CCCNC(=N)N)NS(=O)(=O)c1cccc2c(N(C)C)cccc12 [Sample 24, N^2-(5-dimethylamino-1-naphthylsulfonyl)-L-arginyl-N-butylglycine] | –
